According to PubChem BioAssay (NCI):
Several values for one entry are separate records, joined by “and”; a condition that tells them apart may be missing. Equal entries are not always repeated.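 Five compound concentrations were applied to cells in 96-well plates for 48 hours; endpoints were derived by simple linear interpolation of the resulting dose-response curve. GI50 = concentration required for 50% inhibition of growth. At the TGI there is no net growth.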

What follows are compounds tested on MDA-MB-468 breast (assay: growth of human tumour cells (NCI), 48 h).
For `CCN1CCC(Oc2c(C#N)ncc3[nH]c4ncccc4c23)CC1`, the GI50 was 16000 nM and the TGI was 33300 nM.
For `C=C(C)C(=O)Oc1ccc(N=Nc2ccc(C)cc2)ccc1=O`, the GI50 was 2800 nM and the TGI was 11500 nM.
With `c1ccc(-c2c(-c3ccccc3)[n+](Cc3ccc4ccccc4c3)c(-c3cccc4ccccc34)n2Cc2ccc3ccccc3c2)cc1` the GI50 was 47.3 nM and the TGI was 281 nM.
`COc1ccc(/C=C/c2nnc(/C=C/c3ccc(OC)c(OC)c3)o2)cc1OC` gave a GI50 of 2880 nM and a TGI of 27500 nM.
Work on `O=C(NCCCCNC(=O)OCc1ccc2c(Cl)cc(Cl)c(O)c2n1)OCc1ccc2c(Cl)cc(Cl)c(O)c2n1` yielded a GI50 of 532 nM and a TGI greater than 100000 nM.
`O=C1/C(=C/c2ccc(Cl)cc2)COc2ccc(O)cc21` was tested, and the GI50 was 2060 nM and the TGI was 4550 nM.
With `Cn1ncc2c(Sc3ccc(Cl)cc3)ncnc21` the GI50 was 20700 nM and the TGI was greater than 100000 nM.
`Cc1cc2c([nH]1)CSc1cc(S(=O)(=O)c3ccccc3)c(=O)[nH]c1-2` showed a GI50 of 4530 nM and a TGI greater than 26100 nM.
Compound `O=C(CNc1nc(-c2cccc([N+](=O)[O-])c2)cs1)Nc1cccc([N+](=O)[O-])c1` has a GI50 of 1950 nM and a TGI of 4920 nM.
With `COc1ccc(C2CC(c3cc(Cl)c(C)cc3O)=NN2c2ccc(S(N)(=O)=O)cc2)cc1OC` (stereo unspecified) the GI50 was 2580 nM and the TGI was 9510 nM.
`Cc1ccc(C(=O)Nc2ccc(CNCCN3CCNCC3)c(C(F)(F)F)c2)cc1C#Cc1cnc2cccnn12` was tested, and the GI50 was 1650 nM and the TGI was 3300 nM.
With `COC1=CC(c2ccc[nH]2)=N/C1=C\c1[nH]c(C)c(C(=O)CCCCC(=O)NCc2ccccc2)c1C` the GI50 was 2600 nM and the TGI was 7850 nM.
`NCCOc1ncccc1/C=C1\c2ccccc2-c2ccc(F)cc21` was tested, and the GI50 was 1330 nM and the TGI was 2840 nM.
`COc1ccc(Nc2nccc(Nc3ccc4[nH]ncc4c3)n2)cc1` was tested, and the GI50 was 1700 nM and the TGI was 4550 nM.
Compound `COc1cc(C(=O)/C=C/c2ccc(OCCCCCC[P+](c3ccccc3)(c3ccccc3)c3ccccc3)cc2)cc(OC)c1OC` has a GI50 of 242 nM and a TGI of 705 nM.
`COc1ccc(/C=C(\C#N)c2ccc(OC)cc2)cc1` was tested, and the GI50 was 1610 nM and the TGI was 35000 nM.
Work on `CC(=O)c1nc2ccccc2n1CCN1CCN(C)CC1` yielded a GI50 of 1910 nM and a TGI greater than 22300 nM.
`CC(C)(C)c1ccc(C(=O)Nc2sc3c(c2C#N)CCC(=O)C3)cc1` showed a GI50 of 1330 nM and a TGI of 5280 nM.
`O=C1Nc2ccccc2/C1=C/C(=N/c1nnc(-c2ccccc2)s1)c1ccccc1` gave a GI50 of 2710 nM and a TGI of 8100 nM.
In the case of `CCN(Cc1ccncc1)c1ccc(CO)c(Cl)c1`, the GI50 is reported as 35.4 nM and the TGI is reported as 161 nM.
Work on `FC(F)(F)c1ccc(-c2cnc(Cl)nc2NC2CCCCCC2)cc1` yielded a GI50 of 55800 nM and a TGI greater than 100000 nM.
For `NS(=O)(=O)N(c1cc(C(F)(F)F)cc(C(F)(F)F)c1)C1CCN(Cc2ccc(F)cc2)CC1`, the GI50 was 1860 nM and the TGI was 4760 nM.
Compound `Cn1cc(-c2nc3c(F)cc4[nH]ncc4c3c3c2CCCC3)c(C(F)(F)F)n1` has a GI50 of 6440 nM and a TGI of 33100 nM.
For `Cc1cc(C)c(-c2cc(O)c(-c3c(C)cc(C)cc3C)cc2O)c(C)c1`, the GI50 was 1960 nM and the TGI was 8470 nM.
Work on `O=S1CCN(Cc2ccc(-c3ccc4ncnc(Nc5ccc(OCc6cccc(F)c6)c(Cl)c5)c4c3)o2)CC1` yielded a GI50 of 5.68 nM and a TGI of 46.6 nM.
With `CC(C)c1cc(C(=O)N2Cc3ccc(CN4CCN(C)CC4)cc3C2)c(O)cc1O` the GI50 was 40.4 nM and 58.8 nM and the TGI was 3720 nM and 378 nM.
Compound `COc1cc(/C=N/Nc2ncnc3[nH]ncc23)ccc1O` has a GI50 of 9900 nM and a TGI greater than 25000 nM.
`COc1cc(-c2n[nH]nc2-c2ccc3c(c2)OCCO3)cc(OC)c1OC` showed a GI50 of 14.7 nM and a TGI of 30500 nM.
`COc1cc(-c2ccc3ncnc(NCc4ccccc4)c3c2)cnc1OC` showed a GI50 of 1710 nM and a TGI of 4960 nM.
`Nc1cc2c([nH]c[n+]2CC#CCCl)c(SCC#CCCl)n1` was tested, and the GI50 was 734 nM and the TGI was 2400 nM.
Work on `COCC(=O)Oc1cc(-c2ccc(C)cc2C)c(OC(=O)COC)c(-c2ccc(C)cc2C)c1` yielded a GI50 of 2790 nM and a TGI of 14600 nM.
With `COc1ccc2nc(NNC(=O)c3cnccn3)c3cccn3c2c1` the GI50 was 287 nM and the TGI was 1960 nM.
Compound `NC(N)=Nc1ccc(Oc2cccc(NC(N)=Nc3ccc(Cl)c(C(F)(F)F)c3)c2)cn1` has a GI50 of 1380 nM and a TGI of 3130 nM.
`N#Cc1c(-c2ccccc2)cc(-c2ccccc2)n(CC(=O)NO)c1=O` showed a GI50 of 3480 nM and a TGI of 14500 nM.
Work on `Clc1ccc(CCC(Cn2ccnc2)Sc2c(Cl)cccc2Cl)cc1` (stereo unspecified) yielded a GI50 of 2130 nM and a TGI of 7490 nM.
Work on `CCCCCCCCc1ccc(OCCOCC[N+](C)(C)CC)cc1` (tested in a mixture with another compound) yielded a GI50 of 430 nM and a TGI of 2320 nM.
`O=S1CCN(Cc2ccc(-c3ccc4ncnc(Nc5ccc(OCc6ccccc6)c(Cl)c5)c4c3)o2)CC1` gave a GI50 of 44.9 nM and a TGI of 376 nM.
Compound `C=C1C(=O)O[C@H]2[C@H]1CC/C(COC(=O)CCCCCCC(=O)OC/C1=C/CC[C@@]3(C)O[C@H]3[C@H]3OC(=O)C(=C)[C@@H]3CC1)=C\CC[C@@]1(C)O[C@@H]21` has a GI50 of 2160 nM and a TGI of 5440 nM.
In the case of `O=C(CCl)Nc1ccc2c(c1)C(=O)c1ccccc1C2=O`, the GI50 is reported as 1760 nM and the TGI is reported as 4080 nM.
`CCCCNCC(O)c1cc2c(Cl)cc(Cl)cc2c2cc(C(F)(F)F)ccc12` (stereo unspecified) was tested, and the GI50 was 1590 nM and the TGI was 3030 nM.
`Cc1cc(-c2ncc(-c3cccnc3)cc2/C=C/c2ccccc2)cnc1-c1cccnc1` was tested, and the GI50 was greater than 20500 nM and the TGI was greater than 100000 nM.
`CCCC(c1nnnn1C1CCCCC1)N1CCN(C(=O)c2ccco2)CC1` (stereo unspecified) was tested, and the GI50 was greater than 100000 nM and the TGI was greater than 100000 nM.
Work on `CCCCCCCCc1cc[n+](CC(=O)c2ccc(Br)cc2)cc1` yielded a GI50 of 1230 nM and a TGI of 2690 nM.
